Measurements as given in ChEMBL document CHEMBL1151754, “Structural and mechanistic studies of mofegiline inhibition of recombinant human monoamine oxidase B” (J Med Chem, 2008).

What was measured:
[1] = target: T1, Amine oxidase [flavin-containing] A (Homo sapiens, UniProt P21397); assay: Inhibition of human MAOA
T1 sequence (P21397 whole entry): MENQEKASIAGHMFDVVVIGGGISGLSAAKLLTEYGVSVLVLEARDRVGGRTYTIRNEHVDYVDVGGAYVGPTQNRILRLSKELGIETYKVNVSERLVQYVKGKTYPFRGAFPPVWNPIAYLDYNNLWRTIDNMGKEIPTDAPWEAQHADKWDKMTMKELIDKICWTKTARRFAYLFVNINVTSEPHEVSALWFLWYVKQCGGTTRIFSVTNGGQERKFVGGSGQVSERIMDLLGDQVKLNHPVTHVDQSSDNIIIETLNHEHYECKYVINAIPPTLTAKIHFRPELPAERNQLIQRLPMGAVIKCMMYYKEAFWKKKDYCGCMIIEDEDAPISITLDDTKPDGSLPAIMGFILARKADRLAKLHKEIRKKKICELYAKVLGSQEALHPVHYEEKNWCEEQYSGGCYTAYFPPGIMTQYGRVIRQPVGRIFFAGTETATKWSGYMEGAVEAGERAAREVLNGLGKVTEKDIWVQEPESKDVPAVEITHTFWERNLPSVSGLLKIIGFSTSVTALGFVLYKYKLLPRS

[2] = target: T2, Amine oxidase [flavin-containing] B (Homo sapiens, UniProt P27338); assay: Inhibition of human recombinant MAOB expressed in Pichia pastoris by kinetic assay
T2 sequence (P27338 whole entry): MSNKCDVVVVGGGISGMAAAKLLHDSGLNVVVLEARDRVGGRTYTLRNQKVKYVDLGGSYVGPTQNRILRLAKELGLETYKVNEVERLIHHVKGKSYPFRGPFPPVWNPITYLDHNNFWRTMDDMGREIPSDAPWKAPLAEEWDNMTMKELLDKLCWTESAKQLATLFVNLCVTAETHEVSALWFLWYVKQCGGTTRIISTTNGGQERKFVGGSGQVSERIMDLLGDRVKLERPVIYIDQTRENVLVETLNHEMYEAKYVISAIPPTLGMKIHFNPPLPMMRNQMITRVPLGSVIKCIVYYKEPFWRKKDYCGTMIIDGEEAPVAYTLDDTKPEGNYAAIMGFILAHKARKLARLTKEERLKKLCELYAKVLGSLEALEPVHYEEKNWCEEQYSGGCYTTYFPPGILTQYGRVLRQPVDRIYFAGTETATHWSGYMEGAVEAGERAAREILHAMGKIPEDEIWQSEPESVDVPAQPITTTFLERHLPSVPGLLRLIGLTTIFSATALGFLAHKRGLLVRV

[3] = target: T3, Amine oxidase [flavin-containing] B (Rattus norvegicus, UniProt P19643); assay: Inhibition of rat membrane MAOB
T3 sequence (P19643 whole entry): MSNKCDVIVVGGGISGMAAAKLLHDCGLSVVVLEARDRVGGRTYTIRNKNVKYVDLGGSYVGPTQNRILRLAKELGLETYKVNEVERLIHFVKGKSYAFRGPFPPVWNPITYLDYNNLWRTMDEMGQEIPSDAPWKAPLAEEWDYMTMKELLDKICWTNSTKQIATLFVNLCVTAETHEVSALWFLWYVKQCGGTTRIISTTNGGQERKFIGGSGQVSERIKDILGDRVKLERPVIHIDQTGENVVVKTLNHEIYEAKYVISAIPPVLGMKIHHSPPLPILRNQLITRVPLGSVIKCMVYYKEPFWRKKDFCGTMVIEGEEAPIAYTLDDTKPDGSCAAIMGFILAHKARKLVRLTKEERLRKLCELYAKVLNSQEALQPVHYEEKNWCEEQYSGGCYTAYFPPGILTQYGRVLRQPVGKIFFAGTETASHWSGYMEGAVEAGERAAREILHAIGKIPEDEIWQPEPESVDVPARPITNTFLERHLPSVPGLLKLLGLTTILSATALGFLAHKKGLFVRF

[4] = target: T2, Amine oxidase [flavin-containing] B; assay: Inhibition of human recombinant MAOB expressed in Pichia pastoris at stoichiometric level of 1 mol/mol of E-FAD
[5] = target: T2, Amine oxidase [flavin-containing] B; assay: Inhibition of human recombinant MAOB expressed in Pichia pastoris assessed as fluoride ion release by ion-selective electrode experiment
[6] = target: T2, Amine oxidase [flavin-containing] B; assay: Inhibition of human recombinant MAOB expressed in Pichia pastoris assessed as effect on flavin absorbance shift by spectroscopy
[7] = target: T2, Amine oxidase [flavin-containing] B; assay: Inhibition of human recombinant MAOB expressed in Pichia pastoris assessed as formation of intense negative dichroic band at […] by CD spectroscopy
[8] = target: T2, Amine oxidase [flavin-containing] B; assay: Inhibition of reduced human recombinant MAOB expressed in Pichia pastoris assessed as increase in absorbance of reduced enzyme; set-up: scale not given: the % may be the effect or the level left
[9] = target: T2, Amine oxidase [flavin-containing] B; assay: Inhibition of oxidized human recombinant MAOB expressed in Pichia pastoris under anaerobic assay condition
[10] = target: T1, Amine oxidase [flavin-containing] A; assay: Inhibition of human recombinant MAOA expressed in Pichia pastoris by kinetic assay
[11] = target: T1, Amine oxidase [flavin-containing] A; assay: Inhibition of oxidized human recombinant MAOA expressed in Pichia pastoris under anaerobic assay condition

SMILES	Ki [1] [nM]	Ki [2] [nM]	IC50 [3] [nM]	Activity [4]	Activity [5]	Activity [6]	Activity [7]	Activity [8] [%]	Activity [9]	Ki [10] [nM]	Activity [11]
NCCCCc1ccccc1 [4-PHENYL-BUTYLAMINE]	31000										
NC/C(=C/F)CCc1ccc(F)cc1 [MOFEGILINE]		28	3.6	Active	Active	Active	Active	50	Active	1100	Not Active
